These results are taken from patent US6828475B1, “Nucleic acid sequences encoding a plant cytoplasmic protein involved in fatty acyl-CoA metabolism” (Calgene LLC, priority 1994, dated 2004).

Data set [1] relates to jojoba wax synthase. Description: Wax synthase assay in jojoba microsomal membrane fraction. In kind it is biochemical. The conditions noted are these: for Wax synthase Activity, Acyl Group: 80 μM acyl-CoA substrate, 100 μM radiolabeled oleyl alcohol; for Wax synthase Activity, Acyl Group / Wax synthase Activity, Alcohol Group: microsomal membrane fraction; for Wax synthase Activity, Alcohol Group: 100 μM alcohol substrate, 40 μM radiolabeled eicosenoyl-CoA. The protocol:
Wax synthase activity in a microsomal membrane preparation is measured by incubation of 40 μM [1-^14C] acyl-CoA (usually palmitoyl-CoA, sp. act. 5.1-5.6 mCi/mmol) and 200 μM oleyl alcohol with the sample to be assayed in a total volume of 0.25 ml. The incubation mixture also contains 20% w/v glycerol, 1 mM DTT, 0.5M NaCl and is buffered with 25 mM HEPES (4-[2-hydroxyethyl]-1-piperazineethane-sulfonic acid). HEPES, here and as referred to hereafter is added from a 1M stock solution adjusted to pH 7.5.
A substrate mixture is prepared in a glass vial, with oleyl alcohol being added immediately before use, and is added to samples. Incubation is carried out at 30° C. for one hour. The assay is terminated by placing the assay tube on ice and immediately adding 0.25 ml isopropanol:acetic acid (4:1 v/v). Unlabeled wax esters (0.1 mg) and oleyl alcohol (0.1 mg) are added as carriers. The [^14C] lipids are extracted by the scaled-down protocol of Hara and Radin (Anal. Biochem. (1978) 90:420). Four ml of hexane/isopropanol (3:2, v/v) is added to the terminated assay. The sample is vortexed, 2 ml of aqueous sodium sulphate solution (6.6% w/v) is added, and the sample is again vortexed.
1. Extensive Analysis: Following addition of the sodium sulphate and vortexing the sample, the upper organic phase is removed and the lower aqueous phase is washed with 4 ml hexane/isopropanol (7:2 v/v). The organic phases are pooled and evaporated to dryness under nitrogen. The lipid residue is resuspended in a small volume of hexane, and an aliquot is assayed for radioactivity by liquid scintillation counting. The remainder of the sample can be used for TLC analysis of the labeled classes and thereby give a measure of total wax produced.
For lipid class analysis the sample is applied to a silica TLC plate, and the plate is developed in hexane/diethyl ether/acetic acid (80:20:1 v/v/v). The distribution of radioactivity between the lipid classes, largely wax esters, free fatty acids, fatty alcohols, and polar lipids at the origin, is measured using an AMBIS radioanalytic imaging system (AMBIS Systems Inc., San Diego, Calif.). If necessary the individual lipid classes can be recovered from the TLC plate for further analysis. Reversed-phase TLC systems using C18 plates developed in methanol have also been used for the analysis.
2. Quick Analysis: Following addition of the sodium sulfate and vortexing the sample, a known percentage of the organic phase is removed and counted via liquid scintillation counting. This calculation is used to estimate the total counts in the organic phase. Another portion of the organic phase is then removed, dryed down under nitrogen, redissolved in hexane and spotted on TLC plates and developed and scanned as described for the detailed assay. In this manner the percentage of the total counts which are incorporated into wax is determined.
Acyl-CoA and alcohol substrates having varying carbon chain lengths and degrees of unsaturation were added to a microsomal membrane fraction having wax synthase activity to determine the range of substrates recognized by the jojoba wax synthase. Wax synthase activity was measured as described in Example 1, with acyl specificity measured using 80 μM of acyl-CoA substrate and 100 μM of radiolabeled oleyl alcohol. Alcohol specificity was measured using 100 μM of alcohol substrate and 40 μM of radiolabeled eicosenoyl-CoA.

Data set [2] concerns the target palmitoyl-ACP.
For data set [3], the system named is NADH-dependent fatty acyl-CoA reductase. In words: NADH-dependent fatty acyl-CoA reductase assay, solubilized microsomal membranes. In kind it is biochemical, Euglena gracilis. To be noted: in the assay at levels above the CMC (approximately 0.5% (w/v)). As to the method: For example, an NADH-dependent fatty acyl-CoA reductase activity can be obtained from microsomal membranes isolated from Euglena gracilis. Methods which may be used to isolate microsomal membranes are described, for example in the published PCT patent application WO 92/14816 (application number PCT/US92/03164, filed Feb. 21, 1992). The reductase activity is solubilized from these membranes using the same approaches as used for jojoba reductase and wax synthase. Membranes are incubated on ice for one hour with various amounts of the detergent, CHAPS, in a buffering solution consisting of 25 mM BisTris, pH 6.9, 250 mM NaCl, 10% glycerol and 1 mM EDTA. The sample is then centrifuged at 200,000×g for one hour, and the supernatant and pellet fractions assayed for NADH-dependent reductase activity using radiolabeled palmitoyl-CoA and NADH as substrates. A convenient assay for reductase activity is described in PCT patent application WO 92/14816. Incubation of the membranes with 0.3, 0.5 or 0.7 % (w/v) CHAPS results in retention of reductase activity in the supernatant fractions, indicative of solubilization of the enzyme. If CHAPS is omitted during the incubation and centrifugation, all of the reductase activity is found in the pellet fraction. All of the samples are diluted ten-fold in this same buffer solution prior to assaying in order to dilute the CHAPS present during the incubation.

Turning to `CCCCCCCCCCCCCC(=O)SCCNC(=O)CCNC(=O)[C@H](O)C(C)(C)COP(=O)(O)OP(=O)(O)OC[C@H]1O[C@@H](n2cnc3c(N)ncnc32)[C@H](O)[C@@H]1OP(=O)(O)O` [14:0], in data set [1], the “Wax synthase Activity, Acyl Group” value stood at 95 pmol/min and the “Wax synthase Activity, Alcohol Group” value came to 145 pmol/min.
Regarding `CCCCCCCCCCCCCCCC(=O)SCCNC(=O)CCNC(=O)[C@H](O)C(C)(C)COP(=O)(O)OP(=O)(O)OC[C@H]1O[C@@H](n2cnc3c(N)ncnc32)[C@H](O)[C@@H]1OP(=O)(O)O` [palmitoyl-CoA], the “wax synthase activity towards acyl-thioester substrates” value in data set [1] (as acyl substrate) is reported as “greatest activity”.
On the same count and under the same terms, in the case of `CCCCCCCCCCCCCCCC(=O)SCCNC(C)=O` [N-acetyl-S-palmitoyl cysteamine] it was “no activity was detectable”.
In the case of `O=C(O)c1cc[c]([Hg][OH])cc1` [para-hydroxymercuribenzoate], the “effect of sulphydryl agents on wax synthase activity (inhibition)” value (from here on “effect of sulphydryl agents … (inhibition)”) in data set [1] is listed as “Inhibition”. Besides, the “reversal of inhibition of wax synthase activity” value in data set [1] (subsequent addition of DTT) is given as “could be reversed”.
As to `NC(=O)CI` [Iodoacetamide], the “effect of sulphydryl agents … (inhibition)” value in data set [1] is reported as “much less effective”.
Turning to `CCCCCCCCCCCCCCCCCCCCCC(=O)SCCNC(=O)CCNC(=O)[C@H](O)C(C)(C)COP(=O)(O)OP(=O)(O)OC[C@H]1O[C@@H](n2cnc3c(N)ncnc32)[C@H](O)[C@@H]1OP(=O)(O)O` [22:0], in data set [1], the “Wax synthase Activity, Acyl Group” value turned out to be 46 pmol/min and the “Wax synthase Activity, Alcohol Group” value came out at 17 pmol/min.
On the same counts, the results for `CCCCCCCCCCCCCCCC(=O)SCCNC(=O)CCNC(=O)[C@H](O)C(C)(C)COP(=O)(O)OP(=O)(O)OC[C@H]1O[C@@H](n2cnc3c(N)ncnc32)[C@H](O)[C@@H]1OP(=O)(O)O` [16:0] are 81 pmol/min and 107 pmol/min.
In data set [2], “jojoba wax synthase (microsomal membrane fraction having wax synthase activity) (pool or library)” had a wax synthase activity (% of that with acyl-CoA) of 10.
Take `CCCCCCCCCCCC(=O)SCCNC(=O)CCNC(=O)[C@H](O)C(C)(C)COP(=O)(O)OP(=O)(O)OC[C@H]1O[C@@H](n2cnc3c(N)ncnc32)[C@H](O)[C@@H]1OP(=O)(O)O` [12:0]: in data set [1], the “Wax synthase Activity, Acyl Group” value is 12 pmol/min and the “Wax synthase Activity, Alcohol Group” value was determined as 100 pmol/min.
Taken in the same sequence, the figures for `CCCCCCCCCCCCCCCCCCCC(=O)SCCNC(=O)CCNC(=O)[C@H](O)C(C)(C)COP(=O)(O)OP(=O)(O)OC[C@H]1O[C@@H](n2cnc3c(N)ncnc32)[C@H](O)[C@@H]1OP(=O)(O)O` [20:0] were 49 pmol/min and 21 pmol/min.
In the case of `C[C@H](CCC(=O)NCCC[N+](C)(C)CCCS(=O)(=O)[O-])[C@H]1CC[C@H]2[C@@H]3[C@H](O)C[C@@H]4C[C@H](O)CC[C@]4(C)[C@H]3C[C@H](O)[C@]12C` [CHAPS, 3-[(3-cholamidopropyl)-dimethyl-ammonio]-1-propanesulfonate], the “effect on reductase enzyme activity” value in data set [3] is “inhibition of enzyme activity”.
On to `CCCCCCCCCCCCCCCCCC(=O)SCCNC(=O)CCNC(=O)[C@H](O)C(C)(C)COP(=O)(O)OP(=O)(O)OC[C@H]1O[C@@H](n2cnc3c(N)ncnc32)[C@H](O)[C@@H]1OP(=O)(O)O` [18:0], for which, in data set [1], the “Wax synthase Activity, Acyl Group” value was 51 pmol/min and the “Wax synthase Activity, Alcohol Group” value was 56 pmol/min.
As for palmitoyl-ACP, the “wax synthase activity relative to acyl-CoA” value in data set [1] (as acyl substrate) is reported as ~10 % of that with acyl-CoA.
For the molecule `CCNC(=O)/C=C\C(N)=O` [N-ethylmaleamide], the “effect of sulphydryl agents … (inhibition)” value in data set [1] is “much less effective”.
